Experimental findings from patent publication US8633183B2 (priority 2010, dated 2014) are described below.

pIC50: −log10 of the molar value.

In this test the target is PI3Kalpha (Homo sapiens (Human), UniProt P42336). To be noted: read-out: IC50 PI3K.
Chain of PI3Kalpha (P42336 whole entry, looked up): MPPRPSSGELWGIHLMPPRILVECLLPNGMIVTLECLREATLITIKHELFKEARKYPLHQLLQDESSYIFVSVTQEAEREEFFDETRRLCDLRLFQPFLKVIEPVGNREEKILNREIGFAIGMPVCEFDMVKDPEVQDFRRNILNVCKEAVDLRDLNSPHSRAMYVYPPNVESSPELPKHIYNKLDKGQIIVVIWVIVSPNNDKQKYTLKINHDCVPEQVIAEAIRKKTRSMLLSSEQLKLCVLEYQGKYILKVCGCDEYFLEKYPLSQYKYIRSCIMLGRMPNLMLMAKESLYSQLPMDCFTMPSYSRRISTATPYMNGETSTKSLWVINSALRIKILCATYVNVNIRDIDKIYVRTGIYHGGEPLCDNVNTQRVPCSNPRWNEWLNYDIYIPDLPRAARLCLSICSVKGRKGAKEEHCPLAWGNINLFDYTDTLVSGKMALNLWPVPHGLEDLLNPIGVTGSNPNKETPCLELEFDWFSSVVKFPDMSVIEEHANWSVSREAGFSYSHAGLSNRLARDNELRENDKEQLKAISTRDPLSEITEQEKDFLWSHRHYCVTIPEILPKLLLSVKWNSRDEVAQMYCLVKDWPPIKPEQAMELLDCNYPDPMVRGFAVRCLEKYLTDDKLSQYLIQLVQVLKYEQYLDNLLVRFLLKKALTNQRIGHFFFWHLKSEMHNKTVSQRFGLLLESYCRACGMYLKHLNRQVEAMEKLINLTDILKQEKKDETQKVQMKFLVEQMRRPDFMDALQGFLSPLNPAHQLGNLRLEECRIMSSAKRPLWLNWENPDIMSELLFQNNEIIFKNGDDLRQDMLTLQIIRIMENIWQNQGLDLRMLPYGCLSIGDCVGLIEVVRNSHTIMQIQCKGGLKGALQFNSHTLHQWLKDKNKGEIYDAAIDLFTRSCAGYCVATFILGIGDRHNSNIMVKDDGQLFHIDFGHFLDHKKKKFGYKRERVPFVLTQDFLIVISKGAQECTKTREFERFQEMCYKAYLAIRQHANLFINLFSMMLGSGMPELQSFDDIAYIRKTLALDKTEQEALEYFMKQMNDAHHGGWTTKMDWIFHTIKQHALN
On to `CCc1ncnc(-c2ccc(C(=O)NC[C@H]3CCCN3CC)c(F)c2)c1C#Cc1ccc(N)nc1` [Example D-200], for which the pIC50 (as a rule, the negative decadic logarithm of the IC50, by convention in mol/L) is 6.25.

With `CCc1ncnc(-c2ccc(C(=O)N3CC[C@@H](O)C3)c(F)c2)c1C#Cc1ccc(N)nc1` [Example D-204], the pIC50 was 7.16.

Regarding `CCc1ncnc(-c2ccc(C(=O)NC3CC(C)(C)NC(C)(C)C3)c(F)c2)c1C#Cc1ccc(N)nc1` [Example D-213], the pIC50 was 6.57.

In the case of `CCc1ncnc(-c2ccc(C(=O)N3CCN(Cc4ccccc4)CC3)c(C)c2)c1C#Cc1ccc(N)nc1` [Example E-115], the pIC50 is 6.81.

On to `CCc1ncnc(-c2ccc(C(=O)N3CCC4(CCN(C)C4)C3)c(OC)c2)c1C#Cc1ccc(N)nc1` (centres unmarked) [Example E-66], for which the negative-log IC50 (pIC50) was 6.18.

Regarding `CCc1ncnc(-c2cc(F)c(C(=O)N3CCC(CN(C)C)CC3)c(Cl)c2)c1C#Cc1ccc(N)nc1` [Example E-283], the pIC50 is 6.35.

With `Cc1ncnc(-c2ccc(C(=O)N3CCN(C4CCS(=O)(=O)C4)CC3)cc2)c1C#Cc1ccc(N)nc1` [Example D-192], the pIC50 was 6.87.

As for `CCc1ncnc(-c2cc(F)c(C(=O)N3CCN(CC)CC3)c(F)c2)c1C#Cc1ccc(N)nc1` [Example E-3], the pIC50 was 6.56.

With `CCc1ncnc(-c2ccc(C(=O)N3CCC(N(CC)CC)C3)c(F)c2)c1C#Cc1ccc(N)nc1` [Example D-238], the pIC50 was 6.42.

With `CCc1ncnc(-c2ccc(C(=O)N3CCN(CC4CC4)CC3)c(F)c2)c1C#Cc1ccc(N)nc1` [Example D-106], the pIC50 is 6.60.

With `COc1ccc(-c2ncnc(C)c2C#Cc2ccc(N)nc2)cn1` [Example C-23], the negative logarithm of the IC50 (pIC50) was 7.11.

On to `CCc1ncnc(-c2ccc(C(=O)N3CCN4CCC[C@@H]4C3)c(Cl)c2)c1C#Cc1ccc(N)nc1` [Example E-139], for which the pIC50 is 6.80.

Take `Cc1ncnc(-c2ccc(C(=O)N3CCN(C4CCOCC4)CC3)cc2)c1C#Cc1ccc(N)nc1` [Example D-193]: the pIC50 is 7.19.

On to `Cc1ncnc(-c2cccc(C(=O)N3CCOCC3)c2)c1C#Cc1ccc(N)nc1` [Example C-37], for which the negative logarithm of the IC50 (pIC50) was 6.65.

Turning to `CCc1ncnc(-c2ccc(C(=O)N3CCN(C)C(C)(C)C3)c(F)c2)c1C#Cc1ccc(N)nc1` [Example D-127], the negative logarithm of the IC50 (pIC50) was 6.46.

In the case of `CCc1ncnc(-c2ccc(C(=O)N(C)CCCOC)c(Cl)c2)c1C#Cc1ccc(N)nc1` [Example D-30], the pIC50 was 7.17.

As for `CCc1ncnc(-c2ccc(C(=O)N3CCn4ccnc4C3)c(Cl)c2)c1C#Cc1ccc(N)nc1` [Example E-256], the pIC50 is 7.64.

Take `CCc1ncnc(-c2ccc(C(=O)N3CCN(C)C(C)C3)c(F)c2)c1C#Cc1ccc(N)nc1` [Example D-128]: the pIC50 was 6.80.

For `CCc1ncnc(-c2cc(F)c(C(=O)NC)c(F)c2)c1C#Cc1ccc(N)nc1` [Example E-12], the pIC50 was 7.19.

As to `CCc1ncnc(-c2ccc(C(=O)N(C)O)c(F)c2)c1C#Cc1ccc(N)nc1` [Example D-68], the pIC50 is 7.38.

Consider `Cc1ncnc(-c2ccc(Cl)c(C(=O)N3CCOCC3)c2)c1C#Cc1ccc(N)nc1` [Example C-40], for which the negative-log IC50 (pIC50) was 6.34.

On to `CCc1ncnc(-c2cc(F)c(C(=O)N3CCN(CCOCCO)CC3)c(Cl)c2)c1C#Cc1ccc(N)nc1` [Example E-310], for which the pIC50 is 7.07.

For the compound `CCc1ncnc(-c2ccc(C(=O)N3CCN(C4CCOCC4)CC3)c(F)c2)c1C#Cc1ccc(NC)nc1` [Example E-179], the pIC50 is 6.56.

Consider `CCc1ncnc(-c2ccc(C(=O)N3CCC(C(C)(C)O)CC3)c(Cl)c2)c1C#Cc1ccc(NC)nc1` [Example E-184], for which the pIC50 is 6.40.

Take `CCc1ncnc(-c2ccc(C(=O)N3CC4(CN(C)C4)C3)c(F)c2)c1C#Cc1ccc(N)nc1` [Example E-287]: the pIC50 is 6.54.

With `CCc1ncnc(-c2cc(F)c(C(=O)N3CCN(C(C)(C)C)CC3)c(F)c2)c1C#Cc1ccc(N)nc1` [Example E-8], the pIC50 is 5.88.

With `CCc1ncnc(-c2ccc(C(=O)N3CCN(Cc4ccccc4)CC3)c(F)c2)c1C#Cc1ccc(N)nc1C` [Example D-24], the pIC50 was 5.99.

On to `CCc1ncnc(-c2ccc(C(=O)NCC3(C)COC3)c(F)c2)c1C#Cc1ccc(N)nc1` [Example D-214], for which the pIC50 was 7.14.

Consider `CCc1ncnc(-c2ccc(C(=O)N3CCCO3)c(C)c2)c1C#Cc1ccc(N)nc1` [Example E-94], for which the pIC50 was 6.84.

Turning to `CCc1ncnc(-c2ccc(C(=O)N3CCN(CCO)CC3)c(F)c2)c1C#Cc1ccc(N)nc1` [Example D-91], the pIC50 was 6.96.

Turning to `CCc1ncnc(-c2ccc(C(=O)N3CCC(C4CCN(C)CC4)CC3)c(Cl)c2)c1C#Cc1ccc(N)nc1` [Example D-139], the pIC50 is 6.43.

With `CCc1ncnc(-c2ccc(C(=O)N3CCN4CCCC[C@@H]4C3)c(F)c2)c1C#Cc1ccc(N)nc1` [Example E-145], the negative logarithm of the IC50 (pIC50) is 6.45.

Consider `CCc1ncnc(-c2ccc(C(=O)N3CCC(N(C)C)CC3)c(OC)c2)c1C#Cc1ccc(N)nc1` [Example E-59], for which the negative logarithm of the IC50 (pIC50) was 6.53.

Turning to `CCc1ncnc(-c2ccc(C(=O)N3CCN(c4ccccn4)CC3)c(F)c2)c1C#Cc1ccc(N)nc1` [Example D-92], the pIC50 was 6.91.

As for `CCc1ncnc(-c2ccc(S(C)(=O)=O)cc2)c1C#Cc1ccc(N)nc1` [Example C-14], the negative logarithm of the IC50 (pIC50) was 7.18.

With `CCc1ncnc(-c2cc(F)c(C(=O)N3CCn4c(C)cnc4C3)c(Cl)c2)c1C#Cc1ccc(N)nc1` [Example E-157], the pIC50 is 7.43.

Consider `CCc1ncnc(-c2ccc(C(=O)N3CCCC(N(C)C)C3)c(Cl)c2)c1C#Cc1ccc(N)nc1` (centres unmarked) [Example E-75], for which the pIC50 is 6.56.

With `CCc1ncnc(-c2ccc(C(=O)NCC3CCN(C)C3)c(F)c2)c1C#Cc1ccc(N)nc1` [Example D-75], the pIC50 is 6.47.

As to `CCc1ncnc(-c2ccc(C(=O)NC3CCN(CCOC)CC3)c(F)c2)c1C#Cc1ccc(N)nc1` [Example D-201], the pIC50 is 6.87.

Take `CCc1ncnc(-c2ccc(C(=O)N3CCN(C4CC4)CC3)c(F)c2)c1C#Cc1ccc(N)nc1C` [Example D-13]: the negative logarithm of the IC50 (pIC50) is 6.51.

As for `CCc1ncnc(-c2ccnc(OC)c2)c1C#Cc1ccc(N)nc1` [Example C-33], the pIC50 was 7.21.

Turning to `CCc1ncnc(-c2ccc(OC)nc2)c1C#Cc1ccc(N)nc1` [Example C-30], the pIC50 was 7.40.

On to `CCc1ncnc(-c2cc(F)c(C(=O)N3CCN(C4CCOCC4)CC3)c(F)c2)c1C#Cc1ccc(N)nc1` [Example E-6], for which the pIC50 was 6.91.

With `CCc1cc(-c2ncnc(CC)c2C#Cc2ccc(N)nc2)ccn1` [Example C-3], the pIC50 was 7.40.

On to `Cc1ncnc(-c2ccc(C(=O)N3CC(O)CO3)c(Cl)c2)c1C#Cc1ccc(N)nc1` [Example D-232], for which the pIC50 was 7.42.

In the case of `CCc1ncnc(-c2ccc(C(=O)N3CCC(OC)CC3)c(Cl)c2)c1C#Cc1ccc(N)nc1` [Example D-142], the pIC50 was 7.03.

As for `CCc1ncnc(-c2cc(F)c(C(=O)N3CCN(CCNS(C)(=O)=O)CC3)c(Cl)c2)c1C#Cc1ccc(N)nc1` [Example E-159], the pIC50 was 7.59.

Consider `CCc1ncnc(-c2cc(F)c(C(=O)N3CCN(C)C[C@@H]3C)c(Cl)c2)c1C#Cc1ccc(N)nc1` [Example E-341], for which the pIC50 was 6.55.

`CCc1ncnc(-c2ccc(C(=O)N3CCC4(CC3)OCCCO4)c(Cl)c2)c1C#Cc1ccc(N)nc1` [Example E-19]: the pIC50 was 7.04.

Consider `CCc1ncnc(-c2ccc(C(=O)N3CCC(O)(CN(C)C)CC3)c(F)c2)c1C#Cc1ccc(N)nc1` [Example D-103], for which the pIC50 is 6.33.

Consider `Cc1ncnc(-c2ccc(F)c(C(=O)N(C)C)c2)c1C#Cc1ccc(N)nc1` [Example C-9], for which the pIC50 is 6.60.

Take `CCc1ncnc(-c2ccc(C(=O)NC3CCN(C)C3)c(F)c2)c1C#Cc1ccc(N)nc1` [Example D-199]: the pIC50 was 6.46.

Take `CCc1ncnc(-c2cc(F)c(C(=O)N3CCN(CC)CC3)c(Cl)c2)c1C#Cc1ccc(N)nc1` [Example E-235]: the pIC50 is 6.75.

Take `CCc1ncnc(-c2ccc(C(=O)N3CC[C@H](N(C)C)C3)c(F)c2)c1C#Cc1ccc(N)nc1` [Example D-237]: the pIC50 is 6.79.

As for `CCc1ncnc(-c2ccc(C(=O)N3CCN(C4CC4)CC3)c(F)c2)c1C#Cc1ccc(N)nc1` [Example D-121], the pIC50 is 6.90.

Consider `CCc1ncnc(-c2ccc(C(=O)N3CCOCC3)c(F)c2)c1C#Cc1ccc(N)nc1C` [Example D-20], for which the pIC50 is 6.94.

For the compound `CCc1ncnc(-c2ccc(C(=O)N3CC(O)CO3)c(Cl)c2)c1C#Cc1ccc(N)nc1` (centres unmarked) [Example E-73], the pIC50 was 7.05.

As to `CCNc1ccc(C#Cc2c(CC)ncnc2-c2ccc(C(=O)N3CCC(N4CCOCC4)CC3)c(F)c2)cn1` [Example E-259], the pIC50 is 6.68.

For the compound `CCc1ncnc(-c2ccc(C(=O)N3CCCC(O)C3)c(Cl)c2)c1C#Cc1ccc(N)nc1` (centres unmarked) [Example E-29], the pIC50 is 7.19.

On to `Cc1ncnc(-c2ccc(C(=O)N3CC(O)CO3)c(F)c2)c1C#Cc1ccc(N)nc1` [Example D-228], for which the pIC50 is 7.28.

In the case of `CCc1ncnc(-c2ccc(C(=O)N3CCC4(CC3)CNC4)c(F)c2)c1C#Cc1ccc(N)nc1` [Example E-268], the negative-log IC50 (pIC50) was 6.62.

For `CCc1ncnc(-c2ccc(C(=O)N3CCN(CCO)CC3)c(OC)c2)c1C#Cc1ccc(N)nc1` [Example D-57], the negative-log IC50 (pIC50) is 6.82.

As to `CCc1ncnc(-c2ccc(Cl)c(C(=O)NC)c2)c1C#Cc1ccc(N)nc1` [Example C-49], the pIC50 was 7.17.

As to `CCc1ncnc(-c2ccc(C(=O)NC)c(Cl)c2)c1C#Cc1ccc(C)nc1` [Example C-16], the pIC50 is 6.63.

Regarding `CCc1ncnc(-c2cc(Cl)c(C(=O)N3CCC(C)(O)CC3)c(Cl)c2)c1C#Cc1ccc(N)nc1` [Example E-203], the pIC50 was 7.02.

`CCc1ncnc(-c2cc(F)c(C(=O)N3CCN(C4CCCC4O)CC3)c(Cl)c2)c1C#Cc1ccc(N)nc1` (centres unmarked) [Example E-308]: the pIC50 is 7.20.

`CCc1ncnc(-c2cc(F)c(C(=O)N3CCN(Cc4cc(C)no4)CC3)c(Cl)c2)c1C#Cc1ccc(N)nc1` [Example E-304]: the pIC50 was 6.97.

As to `CCc1ncnc(-c2ccc(C(=O)N3CCNCC3)c(F)c2)c1C#Cc1ccc(N)nc1` [Example D-113], the pIC50 was 7.24.
